≈ marks a conversion by molar mass, not a printed value.
Key:
Tagia sp. = settings: acute; duration: 14 days; mortality
Apis mellifera = settings: acute; duration: 48 hours; oral; unspecified; mortality
Anas platyrhynchos = settings: for LD50: oral, mortality; for NOEL: reproductive
Rattus norvegicus = settings: for LD50: acute, mortality
Aphidius rhopalosiphi = test: LR50; higher = less toxic; settings: not reported; mortality
Typhlodromus pyri = test: LR50; higher = less toxic; settings: not reported; mortality

CS(=O)(=O)c1ccc(C(=O)C2C(=O)CCCC2=O)c(Cl)c1 [Sulcotrione]
LC50 (Oncorhynchus mykiss; acute, duration: 96 hours, mortality): 227 µg/mL (≈ 690 µM)
NOEC (Oncorhynchus mykiss; chronic/long-term, duration: 28 days, growth): 3.2 mg/L
LC50 (Tagia sp.): > 1000 mg/kg
LD50 (Apis mellifera): 50 µg/piece
LD50 (Anas platyrhynchos; acute, unspecified): > 1350 mg/kg-day
NOEL (Anas platyrhynchos; duration: 6 weeks): 17 mg/kg-day
NOEL (Anas platyrhynchos; duration: 20 weeks, body weight): < 10.9 mg/kg-day
LD50 (Anas platyrhynchos; short-term, feed): > 1260 mg/kg-day
LD50 (Rattus norvegicus): > 5000 mg/kg-day
NOEL (Rattus norvegicus; chronic): 0.5 mg/kg-day
LOAEL (Rattus norvegicus; chronic, duration: 2 years, organ weight): 0.04 mg/kg-day
NOAEL (Rattus norvegicus; reproduction developmental, organ weight): 0.06 mg/kg-day
LR50 (Aphidius rhopalosiphi): > 450 g/ha
LR50 (Typhlodromus pyri): > 450 g/ha

CS(=O)(=O)c1ccc(C(=O)O)c(Cl)c1 [Benzoic acid, 2-chloro-4-(methylsulfonyl)-]
LD50 (Anas platyrhynchos; short-term, feed): > 2010 mg/kg-day
LD50 (Rattus norvegicus; oral): > 2000 mg/kg-day
NOEL (Rattus norvegicus; reproduction developmental, M, reproduction): 969 mg/kg-day

Source: EPA's ToxValDB 9.5 (doi:10.2903/j.efsa.2008.150r)
